biological target: Prostaglandin E synthase, mPGES-1 (Homo sapiens) (UniProt O14684); assay: Inhibition of Prostaglandin E2 synthase-1 in IL1-beta stimulated microsomal fraction of human A549 cell assessed as PGE2 level by RP-HPLC
Sequence (O14684 whole entry, looked up): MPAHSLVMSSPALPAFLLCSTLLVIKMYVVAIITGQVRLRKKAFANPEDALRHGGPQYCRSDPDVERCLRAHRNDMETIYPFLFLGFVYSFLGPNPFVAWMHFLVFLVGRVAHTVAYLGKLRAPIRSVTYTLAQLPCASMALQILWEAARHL

Row | IC50 | SMILES
1 | > 30 µM | O=Cc1ccc(-c2c(Cc3ccccc3)nnn2CSc2ccccc2)cc1 [4-(5-Benzyl-3-phenylsulfanylmethyl-3H-[1,2,3]triazol-4-yl)-benzaldehyde]
2 | 3.2 µM | O=C(O)c1ccc(Cn2cc(-c3ccc(-c4ccccc4)cc3)nn2)c([N+](=O)[O-])c1 [4-(4-Biphenyl-4-yl-[1,2,3]triazol-1-ylmethyl)-3-nitro-benzoic acid]
3 | > 30 µM | Cc1ccccc1CCn1cc(-c2ccc(-c3ccccc3COc3cccc4ccccc34)cc2)nn1 [4-[2'-(Naphthalen-1-yloxymethyl)-biphenyl-4-yl]-1-(2-o-tolyl-ethyl)-1H-[1,2,3]triazole]
4 | > 30 µM | Cc1ccccc1CCn1cc(-c2ccc(-c3ccccc3COc3cc(C(F)(F)F)ccc3Cl)cc2)nn1 [4-[2'-(2-Chloro-5-trifluoromethyl-phenoxymethyl)-biphenyl-4-yl]-1-(2-o-tolyl-ethyl)-1H-[1,2,3]triazole]
5 | > 30 µM | Oc1ccc(-c2ccc(-c3cn(CCCc4ccccc4)nn3)cc2)cc1 [4'-[1-(3-Phenyl-propyl)-1H-[1,2,3]triazol-4-yl]-biphenyl-4-ol]
6 | > 30 µM | c1ccc(CCCn2cc(-c3ccc(-c4ccccc4COc4cccc5ccccc45)cc3)nn2)cc1 [4-[2'-(Naphthalen-1-yloxymethyl)-biphenyl-4-yl]-1-(3-phenyl-propyl)-1H-[1,2,3]triazole]
7 | > 30 µM | Oc1ccc(-c2ccc(-c3cn(CSc4ccccc4)nn3)cc2)cc1 [4'-(1-Phenylsulfanylmethyl-1H-[1,2,3]triazol-4-yl)-biphenyl-4-ol]
8 | > 30 µM | CN(C)c1cccc2c(S(=O)(=O)Nc3ccc(-c4ccc(-c5cn(CCCc6ccccc6)nn5)cc4)cc3)cccc12 [5-Dimethylamino-naphthalene-1-sulfonic acid{4'-[1-(3-phenyl-propyl)-1H-[1,2,3]triazol-4-yl]-biphenyl-4-yl}-amide]
9 | > 30 µM | Cc1ccccc1CCn1cc(-c2ccc(-c3ccc(N)cc3)cc2)nn1 [4'-[1-(2-o-Tolyl-ethyl)-1H-[1,2,3]triazol-4-yl]-biphenyl-4-ylamine]

The remaining lines, values behind:

Row | SMILES | IC50
10 | c1ccc(CCCn2cc(-c3ccc(-c4cc5ccccc5c5ccccc45)cc3)nn2)cc1 [4-(4-Phenanthren-9-yl-phenyl)-1-(3-phenyl-propyl)-1H-[1,2,3]triazole] | > 30 µM
11 | c1ccc(CCCn2cc(-c3ccc(-c4ccc(Oc5ccccc5)cc4)cc3)nn2)cc1 [4-(4'-Phenoxy-biphenyl-4-yl)-1-(3-phenyl-propyl)-1H-[1,2,3]triazole] | > 30 µM
12 | Oc1cccc(-c2ccc(-c3cn(CSc4ccccc4)nn3)cc2)c1 [4'-(1-Phenylsulfanylmethyl-1H-[1,2,3]triazol-4-yl)-biphenyl-3-ol] | > 30 µM
13 | O=C(O)c1ccc(S(=O)(=O)n2cc(-c3ccc(-c4ccccc4COc4cccc5ccccc45)cc3)nn2)cc1 [4-{4-[2'-(Naphthalen-1-yloxymethyl)-biphenyl-4-yl]-1,2,3]triazole-1-sulfonyl}-benzoic acid] | > 30 µM
14 | O=C(OCc1cn(CSc2ccccc2)nn1)c1ccccc1 [Benzoic acid 1-Phenylsulfanylmethyl-1H-[1,2,3]Triazol-4-ylmethyl Ester] | > 30 µM
15 | FC(F)(F)c1ccc(Cl)c(OCc2ccccc2-c2ccc(-c3cn(CCCc4ccccc4)nn3)cc2)c1 [4-[2'-(2-Chloro-5-trifluoromethyl-phenoxymethyl)-biphenyl-4-yl]-1-(3-phenyl-propyl)-1H-[1,2,3]triazole] | > 30 µM

Reference: BindingDB's records for doi:10.1021/jm101238d (University of Salerno, 2011)
